Measured values as given in paper PMC4153677, “Probing the Activity Modification Space of the Cysteine Peptidase Cathepsin K with Novel Allosteric Modifiers” (PLoS ONE, 2014).

Molecular target: T1, Recombinant human cathepsin K (Homo sapiens, UniProt P43235)
T1 construct: made in house
T1 sequence (P43235 115-329): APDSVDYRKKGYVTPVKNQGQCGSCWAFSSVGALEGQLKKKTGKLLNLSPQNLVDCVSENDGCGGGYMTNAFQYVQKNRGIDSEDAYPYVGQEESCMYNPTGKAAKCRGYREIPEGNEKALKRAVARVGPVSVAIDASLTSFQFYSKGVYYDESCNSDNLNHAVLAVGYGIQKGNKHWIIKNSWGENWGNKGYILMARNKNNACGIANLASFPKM
Assay: Azocasein degradation assays
Assay type: biochemical
Settings: pH 5.5; substrate azocasein 3 mg/ml; 0.1 µM cathepsin K, 30 min 37°C, pH 5.50; compounds up to 2 mM (compound 2: 1 mM); read-out: Residual activity
Description: Figure 4 Effect of modifiers on the degradation of macromolecular substrates. (A) Effect of increasing concentrations of compounds 1 and 2 on the degradation of calf skin collagen. Molecular mass standards are given in kDa and positions of α, β and γ chains of intact collagen are marked by arrows. (B) Effect of modifiers on azocasein degradation. (C) Effect of glycosaminoglycans and clusterin on azocasein degradation. Two different concentrations of each glycosaminoglycan were used in the experiments (10 µg/ml and 200 µg/ml). Error bars in panels B and C represent the SEM of three experiments. All experiments were performed in 100 mM sodium acetate buffer pH 5.50 containing 1 mM EDTA and 5 mM DTT, as described in detail in the Materials and Methods section. Abbreviations: CPD – compound, CS – chondroitin sulfate, DS – dermatan sulfate, HP – heparin.
Azocasein (Sigma-Aldrich, USA) was dissolved in 100 mM sodium acetate buffer pH 5.50 containing 1 mM EDTA and 5 mM DTT at a concentration of 3 mg/ml. Samples were incubated with 0.1 µM cathepsin K for 30 min at 37°C in the presence of each compound. […] Reactions were stopped by addition of trichloroacetic acid (final concentration 5% v/v), centrifuged, clear supernatants mixed with 0.5 M NaOH and the concentrations of solubilized peptides determined by measuring the absorbance at 440 nm. All experiments were performed in triplicates and appropriate blanks were run to take into account the absorption of azocasein and compounds alone. IC 50 values were determined as described previously.

How did the remaining activity turn out when OC(c1cc(-c2ccc(C(F)(F)F)cc2)nc(C(F)(F)F)c1)C1CCCCN1 (stereo not shown) [Compound 2, Piperidin-2-yl-[2-(trifluoromethyl)-6-[4-(trifluoromethyl)phenyl]pyridin-4-yl] methanol] was run?
The remaining activity was 93 ± 7%.
